Laboratory results reported in PubChem BioAssay AID1259407 (Chemical Carcinogenesis Research Information System (CCRIS), 2018).
Activity calls are given as the source filed them. No rule for the calls is given here.

Test system: CCRIS mutagenicity, Ames/micronucleus/aberration tests
Assay: CCRIS mutagenicity studies
[1] = Test System: AMES SALMONELLA TYPHIMURIUM, Strain/Indicator: TA98, Metabolic Activation: NONE, Method: PREINCUBATION
[2] = Test System: AMES SALMONELLA TYPHIMURIUM, Strain/Indicator: TA100, Metabolic Activation: NONE, Method: PREINCUBATION

Measured: mutagenic call

CCN(CC)CCCC(C)Nc1ccnc2cc(Cl)ccc12 (centres undefined)
active: Test System: AMES SALMONELLA TYPHIMURIUM, Strain/Indicator: TA97, Metabolic Activation: NONE, Method: STANDARD PLATE active; positive | Test System: AMES SALMONELLA TYPHIMURIUM, Strain/Indicator: TA98, Metabolic Activation: NONE, Method: STANDARD PLATE active; positive | Test System: AMES SALMONELLA TYPHIMURIUM, Strain/Indicator: TA98, Metabolic Activation: RAT, LIVER, S-9, AROCLOR 1254 OR PHENOBARBITOL, Method: STANDARD PLATE active; positive | Test System: AMES SALMONELLA TYPHIMURIUM, Strain/Indicator: TA100, Metabolic Activation: RAT, LIVER, S-9, AROCLOR 1254 OR PHENOBARBITOL, Method: STANDARD PLATE active; positive | Test System: AMES SALMONELLA TYPHIMURIUM, Strain/Indicator: TA1537, Metabolic Activation: NONE, Method: MICROFLUCTUATION active; positive | Test System: E. COLI, Strain/Indicator: DG1669, Metabolic Activation: NONE, Method: STANDARD PLATE active; positive | Test System: E. COLI, Strain/Indicator: DG1669, Metabolic Activation: RAT, LIVER, S-9, AROCLOR 1254, Method: STANDARD PLATE active; positive
inactive: Test System: AMES SALMONELLA TYPHIMURIUM, Strain/Indicator: TA97A, Metabolic Activation: NONE, Method: STANDARD PLATE inactive; negative | Test System: AMES SALMONELLA TYPHIMURIUM, Strain/Indicator: TA97A, Metabolic Activation: RAT LIVER S-9, PHENOBARBITAL, Method: STANDARD PLATE inactive; negative | Test System: AMES SALMONELLA TYPHIMURIUM, Strain/Indicator: TA97A, Metabolic Activation: RAT, LIVER, S-9, AROCLOR 1254, Method: STANDARD PLATE inactive; negative | [1] inactive; negative | Test System: AMES SALMONELLA TYPHIMURIUM, Strain/Indicator: TA98, Metabolic Activation: RAT, LIVER, S-9, PCB, Method: STANDARD PLATE inactive; negative | Test System: AMES SALMONELLA TYPHIMURIUM, Strain/Indicator: TA98, Metabolic Activation: RAT, LIVER, S-9, Method: PREINCUBATION inactive; negative | [2] inactive; negative | Test System: AMES SALMONELLA TYPHIMURIUM, Strain/Indicator: TA100, Metabolic Activation: RAT LIVER S-9, PHENOBARBITAL, Method: STANDARD PLATE inactive; negative | Test System: AMES SALMONELLA TYPHIMURIUM, Strain/Indicator: TA100, Metabolic Activation: RAT, LIVER, S-9, PCB, Method: STANDARD PLATE inactive; negative | Test System: AMES SALMONELLA TYPHIMURIUM, Strain/Indicator: TA100, Metabolic Activation: RAT, LIVER, S-9, Method: PREINCUBATION inactive; negative | Test System: AMES SALMONELLA TYPHIMURIUM, Strain/Indicator: TA102, Metabolic Activation: NONE, Method: STANDARD PLATE inactive; negative | Test System: AMES SALMONELLA TYPHIMURIUM, Strain/Indicator: TA102, Metabolic Activation: RAT LIVER S-9, PHENOBARBITAL, Method: STANDARD PLATE inactive; negative | Test System: AMES SALMONELLA TYPHIMURIUM, Strain/Indicator: TA104, Metabolic Activation: NONE, Method: STANDARD PLATE inactive; negative | Test System: AMES SALMONELLA TYPHIMURIUM, Strain/Indicator: TA104, Metabolic Activation: RAT LIVER S-9, PHENOBARBITAL, Method: STANDARD PLATE inactive; negative | Test System: AMES SALMONELLA TYPHIMURIUM, Strain/Indicator: TA1535, Metabolic Activation: NONE, Method: STANDARD PLATE inactive; negative | Test System: AMES SALMONELLA TYPHIMURIUM, Strain/Indicator: TA1535, Metabolic Activation: RAT, LIVER, S-9, AROCLOR 1254 OR PHENOBARBITOL, Method: STANDARD PLATE inactive; negative | Test System: AMES SALMONELLA TYPHIMURIUM, Strain/Indicator: TA1537, Metabolic Activation: NONE, Method: STANDARD PLATE inactive; negative | Test System: AMES SALMONELLA TYPHIMURIUM, Strain/Indicator: TA1537, Metabolic Activation: RAT, LIVER, S-9, AROCLOR 1254, Method: STANDARD PLATE inactive; negative | Test System: AMES SALMONELLA TYPHIMURIUM, Strain/Indicator: TA1537, Metabolic Activation: RAT, LIVER, S-9, AROCLOR 1254 OR PHENOBARBITOL, Method: STANDARD PLATE inactive; negative | Test System: AMES SALMONELLA TYPHIMURIUM, Strain/Indicator: TA1537, Metabolic Activation: RAT, LIVER, S-9, PCB, Method: STANDARD PLATE inactive; negative | Test System: AMES SALMONELLA TYPHIMURIUM, Strain/Indicator: TA1538, Metabolic Activation: NONE, Method: STANDARD PLATE inactive; negative | Test System: AMES SALMONELLA TYPHIMURIUM, Strain/Indicator: TA1538, Metabolic Activation: RAT, LIVER, S-9, AROCLOR OR PHENOBARBITOL, Method: STANDARD PLATE inactive; negative | Test System: AMES SALMONELLA TYPHIMURIUM, Strain/Indicator: TA1538, Metabolic Activation: RAT, LIVER, S-9, PCB, Method: STANDARD PLATE inactive; negative | Test System: AMES SALMONELLA TYPHIMURIUM, Strain/Indicator: TA1977, Metabolic Activation: NONE, Method: MICROFLUCTUATION inactive; negative | Test System: E. COLI, Strain/Indicator: WP2 UVRA, Metabolic Activation: RAT, LIVER, S-9, PCB, Method: STANDARD PLATE inactive; negative

C=CCN(CC=C)CC=C
inactive: Test System: AMES SALMONELLA TYPHIMURIUM, Strain/Indicator: TA98, Metabolic Activation: HAMSTER, LIVER, S-9, AROCLOR 1254 (10%), Method: PREINCUBATION inactive; negative | [1] inactive; negative | Test System: AMES SALMONELLA TYPHIMURIUM, Strain/Indicator: TA98, Metabolic Activation: RAT, LIVER, S-9, AROCLOR 1254 (10%), Method: PREINCUBATION inactive; negative | Test System: AMES SALMONELLA TYPHIMURIUM, Strain/Indicator: TA100, Metabolic Activation: HAMSTER, LIVER, S-9, AROCLOR 1254 (10%), Method: PREINCUBATION inactive; negative | [2] inactive; negative | Test System: AMES SALMONELLA TYPHIMURIUM, Strain/Indicator: TA100, Metabolic Activation: RAT, LIVER, S-9, AROCLOR 1254 (10%), Method: PREINCUBATION inactive; negative | Test System: AMES SALMONELLA TYPHIMURIUM, Strain/Indicator: TA1535, Metabolic Activation: HAMSTER, LIVER, S-9, AROCLOR 1254 (10%), Method: PREINCUBATION inactive; negative | Test System: AMES SALMONELLA TYPHIMURIUM, Strain/Indicator: TA1535, Metabolic Activation: NONE, Method: PREINCUBATION inactive; negative | Test System: AMES SALMONELLA TYPHIMURIUM, Strain/Indicator: TA1535, Metabolic Activation: RAT, LIVER, S-9, AROCLOR 1254 (10%), Method: PREINCUBATION inactive; negative | Test System: AMES SALMONELLA TYPHIMURIUM, Strain/Indicator: TA1537, Metabolic Activation: HAMSTER, LIVER, S-9, AROCLOR 1254 (10%), Method: PREINCUBATION inactive; negative | Test System: AMES SALMONELLA TYPHIMURIUM, Strain/Indicator: TA1537, Metabolic Activation: NONE, Method: PREINCUBATION inactive; negative | Test System: AMES SALMONELLA TYPHIMURIUM, Strain/Indicator: TA1537, Metabolic Activation: RAT, LIVER, S-9, AROCLOR 1254 (10%), Method: PREINCUBATION inactive; negative
